This note sets out measurements from patent publication US20040053822A1, “Inducing cellular immune responses to mage2/3 using peptide and nucleic acid compositions” (priority 2002, published 2004).

Where two headings read alike, the source gives them in different places. Residues, ends and D or L forms follow the SMILES beside them. Some results are limits rather than exact numbers.

Assay [1] concerns melanoma cell lines (624 mel and 888 mel). Briefly: Primary CTL induction, 51Cr release on tumor targets (endogenous recognition). It is filed as cell-based, human. As to the method:
(§1) The melanoma cells were treated with 100 U/ml IFNγ (Genzyme) for 48 hours at 37° C. before use as targets in the ^51Cr release and in situ IFNγ assays.
(§2) Restimulation of the induction cultures with peptide-pulsed adherent cells: Seven and fourteen days after the primary induction the cells were restimulated with peptide-pulsed adherent cells. The PBMCS were thawed and washed twice with RPMI and DNAse. The cells were resuspended at 5×10^6 cells/ml and irradiated at ˜4200 rads. The PBMCs were plated at 2×10^6 in 0.5 ml complete medium per well and incubated for 2 hours at 37° C. The plates were washed twice with RPMI by tapping the plate gently to remove the nonadherent cells and the adherent cells pulsed with 10 μg/ml of peptide in the presence of 3 μg/ml β2 microglobulin in 0.25 ml RPMI/5% AB per well for 2 hours at 37° C. Peptide solution from each well was aspirated and the wells were washed once with RPMI. Most of the media was aspirated from the induction cultures (CD8+ cells) and brought to 0.5 ml with fresh media. The cells were then transferred to the wells containing the peptide-pulsed adherent cells. Twenty four hours later rhuman IL10 was added at a final concentration of 10 ng/ml and rhuman IL2 was added the next day and again 2-3 days later at 50 IU/ml (Tsai et al., Critical Reviews in Immunology 18(l-2):65-75, 1998). Seven days later the cultures were assayed for CTL activity in a ^51Cr release assay. In some experiments the cultures were assayed for peptide-specific recognition in the in situ IFNγ ELISA at the time of the second restimulation followed by assay of endogenous recognition 7 days later. After expansion, activity was measured in both assays for a side by side comparison.
Seven days after the second restimulation, cytotoxicity was determined in a standard (5 hr) ^51Cr release assay by assaying individual wells at a single E:T. Peptide-pulsed targets were prepared by incubating the cells with 10 μg/ml peptide overnight at 37° C.
Adherent target cells were removed from culture flasks with trypsin-EDTA. Target cells were labelled with 200 μCi of ^51Cr sodium chromate (Dupont, Wilmington, Del.) for 1 hour at 37° C. […] Target cells.(100 μl) and 100 μl of effectors were plated in 96 well round-bottom plates and incubated for 5 hours at 37° C. At that time, 100 μl of supernatant were collected from each well and percent lysis was determined according to the formula: [(cpm of the test sample−cpm of the spontaneous ^51Cr release sample)/(cpm of the maximal ^51Cr release sample−cpm of the spontaneous ^51Cr release sample)]×100. Maximum and spontaneous release were determined by incubating the labelled targets with 1% Trition X-100 and media alone, respectively.
CTL Expansion. […] The cells were split if the cell concentration exceeded 1×10^6/ml and the cultures were assayed between days 13 and 15 at E:T ratios of 30, 10, 3 and 1:1 in the ^51Cr release assay or at 1×10^6/ml in the in situ IFNγ assay using the same targets as before the expansion.
The A2-supermotif cross-reactive binding peptides that were selected for further evaluation were tested in the cellular assay for the ability to induce peptide-specific CTL in normal individuals.

The test system of assay [2] is 0.221A2.1 cell line (peptide-loaded target). Briefly: Primary CTL induction from normal donor PBMC, 51Cr release on peptide-pulsed targets. It is filed as cell-based, human. As to the method:
as §1
The monocytes were purified by plating 10×10^6 PBMC/well in a 6-well plate. After 2 hours at 37° C., the non-adherent cells were removed by gently shaking the plates and aspirating the supernatants. The wells were washed a total of three times with 3 ml RPMI to remove most of the non-adherent and loosely adherent cells. Three ml of complete medium containing 50 ng/ml of GM-CSF and 1,000 U/ml of IL4 were then added to each well. DC were used for CTL induction cultures following 7 days of culture.
Induction of CTL with DC and Peptide: CD8+ T-cells were isolated by positive selection with Dynal immunomagnetic beads (Dynabeads® M-450) and the detacha-bead® reagent. Typically about 200-250×10^6 PBMC were processed to obtain 24×10^6 CD8^+ T-cells (enough for a 48-well plate culture). Briefly, the PBMCs were thawed in RPMI with 30 μg/ml DNAse, washed once with PBS containing 1% human AB serum and resuspended in PBS/1% AB serum at a concentration of 20×10^6 cells/ml. The magnetic beads were washed 3 times with PBS/AB serum, added to the cells (140 μl beads/20×10^6 cells) and incubated for 1 hour at 4° C. with continuous mixing. The beads and cells were washed 4× with PBS/AB serum to remove the nonadherent cells and resuspended at 100×10^6 cells/ml (based on the original cell number) in PBS/AB serum containing 100 μ/ml detacha-bead® reagent and 30 μg/ml DNAse. The mixture is incubated for 1 hour at room temperature with continuous mixing. The beads were washed again with PBS/AB/DNAse to collect the CD8+ T-cells. The DC were collected and centrifuged at 1300 rpm for 5-7 minutes, washed once with PBS with 1% BSA, counted and pulsed with 40 μg/ml of peptide at a cell concentration of 1-2×10^6/ml in the presence of 3 μg/ml β2- microglobulin for 4 hours at 20° C. The DC were then irradiated (4,200 rads), washed 1 time with medium and counted again.
Setting up induction cultures: 0.25 ml cytokine-generated DC (@1×10^5 cells/ml) were co-cultured with 0.25 ml of CD8+ T-cells (@2×10^6 cell/ml) in each well of a 48-well plate in the presence of 10 ng/ml of IL-7. rHuman IL10 was added the next day at a final concentration of 10 ng/ml and rhuman IL2 was added 48 hours later at 10 IU/ml.
as §2, with “comparison. […]” for “comparison.”

A further assay addresses HLA-B*3501 (Homo sapiens, UniProt P01889, A329T/A93T/A95T/C349S/D201E/D98Y/E176V/E187L/E204Q/E69T/I218V/K202T/L119I/Q94N/R155S/R180L/S121R/S35A/S48A/T118I/V127L/V306I/V36M/Y140S/Y91F). Briefly: Purified HLA class I peptide binding assay, B*3501.
The target in the next assay is HLA-B*0702 (Homo sapiens, UniProt P01889). Briefly: Purified HLA class I peptide binding assay, B*0702.
The next assay concerns the target HLA-B*5101 (B51) (Homo sapiens, UniProt P01889, A329T/A93T/A95T/C349S/D138N/D201E/D98Y/E187L/E204Q/E69T/G107R/I218V/K202T/L105A/L119W/N104I/Q94N/R106L/R155S/R180L/S101N/S121T/S35A/S48A/V306I/V36M/Y195H/Y91F). Briefly: Purified HLA class I peptide binding assay, B51. The note with it: binding affinity, HLA-B7 supermotif-bearing peptides.
The target in the next assay is HLA-B*5401 (Homo sapiens, UniProt P01889, A329T/C349S/D138N/D201E/E176V/E187T/E204Q/E69G/I76V/K202T/L119W/R155S/R180L/S121T/S35A/S48A/V127L/V306I/V36M/Y140L). Briefly: Purified HLA class I peptide binding assay, B*5401.
Another assay deals with HLA-B*5301 (Homo sapiens, UniProt P01889, A329T/A93T/A95T/C349S/D201E/D98Y/E176V/E187L/E204Q/E69T/G107R/I218V/K202T/L105A/L119I/N104I/Q94N/R106L/R155S/R180L/S101N/S121R/S35A/S48A/T118I/V127L/V306I/V36M/Y140S/Y91F). Briefly: Purified HLA class I peptide binding assay, B*5301.
Where [3] appears, read: number of donors positive over total tested, tumor targets.
[4] abbreviates: Number of donors yielding a positive response/total tested.
The mark [5] stands for this setting: number of donors positive over the total number of donors tested.
Where [6] appears, read: binding affinity, HLA-B7 supermotif-bearing peptides.

As for `CC[C@H](C)[C@H](NC(=O)[C@@H](N)CCCCN)C(=O)N[C@@H](Cc1c[nH]c2ccccc12)C(=O)N[C@@H](CCC(=O)O)C(=O)N[C@@H](CCC(=O)O)C(=O)N[C@@H](CC(C)C)C(=O)N[C@@H](CO)C(=O)N[C@H](C(=O)N[C@@H](CC(C)C)C(=O)O)C(C)C`, the “CTL Tumor” value in assay [1] (setting [3]) is on record as 0/3^. Besides, the “CTL Wild-type” value in assay [2] (setting [4]) and in assay [2] (setting [5]) was 3/4 each time.

For `CC[C@H](C)[C@H](NC(=O)CNC(=O)[C@H](Cc1ccccc1)NC(=O)[C@@H](NC(=O)[C@H](CC(C)C)NC(=O)[C@H](CCC(N)=O)NC(=O)[C@H](CC(C)C)NC(=O)[C@@H](N)Cc1ccc(O)cc1)C(C)C)C(=O)N[C@@H](CCC(=O)O)C(=O)N[C@H](C(=O)O)C(C)C` [YLQLVFG1EV], in assay [2] (setting [4]), the “CTL Wild-type” value worked out at 313.

Consider `CSCC[C@H](NC(=O)[C@@H](N)CCCCN)C(=O)N[C@H](C(=O)N[C@@H](CCC(=O)O)C(=O)N[C@@H](CC(C)C)C(=O)N[C@H](C(=O)N[C@@H](Cc1c[nH]cn1)C(=O)N[C@@H](Cc1ccccc1)C(=O)N[C@@H](CC(C)C)C(=O)N[C@@H](CC(C)C)C(=O)O)C(C)C)C(C)C`, for which, in assay [1] (setting [3]), the “CTL Tumor” value is reported as 0/1^. Moreover, the “CTL Wild-type” value in assay [2] (setting [5]) is 1/1.

`CC[C@H](C)[C@H](NC(=O)CNC(=O)[C@H](Cc1ccccc1)NC(=O)[C@@H](NC(=O)[C@H](CC(C)C)NC(=O)[C@@H](N)CCC(N)=O)C(C)C)C(=O)N[C@@H](CCC(=O)O)C(=O)N[C@@H](CC(C)C)C(=O)N[C@@H](CCSC)C(=O)N[C@@H](CCC(=O)O)C(=O)N[C@H](C(=O)O)C(C)C`: in assay [1] (donors positive over total tested, positive result seen after the second restim.), the “CTL Tumor” value was 1/3^2.

`CC(C)C[C@H](NC(=O)[C@H](C)NC(=O)[C@H](CCCNC(=N)N)NC(=O)[C@@H]1CCCN1C(=O)[C@@H](N)Cc1ccccc1)C(=O)N[C@H](C(=O)N[C@@H](CCC(=O)O)C(=O)N[C@H](C(=O)N[C@@H](CO)C(=O)N[C@@H](Cc1ccc(O)cc1)C(=O)N[C@H](C(=O)O)C(C)C)[C@@H](C)O)C(C)C`: the IC50 on HLA-B*3501 (setting [6]) is 4230 nM; on HLA-B*0702 (setting [6]), 4.2 nM; on HLA-B*5101 (B51) (read-out: B*5101 nM), 204 nM; at HLA-B*5401 (setting [6]), 10 nM; at HLA-B*5301 (setting [6]), over 10000 nM.

For `CC[C@H](C)[C@H](NC(=O)[C@H](Cc1ccc(O)cc1)NC(=O)[C@H](CC(C)C)NC(=O)[C@H](Cc1c[nH]cn1)NC(=O)[C@H](CO)NC(=O)[C@@H](NC(=O)[C@@H]1CCCN1C(=O)[C@@H](N)Cc1ccccc1)[C@@H](C)CC)C(=O)O`, the IC50 on HLA-B*3501 is 655 nM; on HLA-B*0702, 212 nM; at HLA-B*5101 (B51) (B*5101 nM) it was 42 nM; at HLA-B*5401, 59 nM; at HLA-B*5301, 358 nM.

`CSCC[C@H](NC(=O)[C@@H](NC(=O)[C@@H](NC(=O)[C@@H]1CCCN1C(=O)[C@@H](N)Cc1ccccc1)[C@@H](C)O)[C@@H](C)O)C(=O)N[C@@H](CC(N)=O)C(=O)N[C@@H](Cc1ccc(O)cc1)C(=O)N1CCC[C@H]1C(=O)N[C@@H](CC(C)C)C(=O)O` (H-FPTTMNYPL-OH; N-terminus and C-terminus assumed): the IC50 turned out to be 4.5 nM at HLA-B*3501 (setting [6]); 6.4 nM on HLA-B*0702 (setting [6]); 423 nM on HLA-B*5101 (B51) (read-out: B*5101 nM); 3 nM at HLA-B*5401 (setting [6]); 39 nM at HLA-B*5301 (setting [6]).

For the molecule `CC[C@H](C)[C@H](NC(=O)[C@H](CC(C)C)NC(=O)[C@H](CC(C)C)NC(=O)CNC(=O)[C@H](C)NC(=O)[C@H](CCCCN)NC(=O)[C@@H]1CCCN1C(=O)[C@@H](N)Cc1ccccc1)C(=O)N[C@H](C(=O)N[C@H](C(=O)O)C(C)C)[C@@H](C)CC` (H-FPKAGLLIIV-OH; N-terminus and C-terminus assumed), the IC50 on HLA-B*3501 (setting [6]) was determined as 878 nM; at HLA-B*0702 (setting [6]), 220 nM; at HLA-B*5101 (B51) (read-out: B*5101 nM) it was 190 nM; at HLA-B*5401 (setting [6]) it was 1.1 nM; on HLA-B*5301 (setting [6]) it was 4650 nM.
